This is an account of results in patent US10730836B2, “Forms of apremilast” (Johnson Matthey Public Limited Company, priority 2016, dated 2020).

Data set [1] in a line: Solid form stability under stressed conditions (45° C., relative humidity>95%). It counts as physicochemical. The following applies: under 45° C. and humid conditions (relative humidity>95%). As for the experimental part:
Apremilast Form H, a solvate, is a unique crystalline phase. […] FIG. 1 is a representative XPRD pattern for a representative sample of apremilast Form H made according to Example 1. Apremilast Form H is stable under stressed conditions, i.e. at under 45° C. and humid conditions (relative humidity>95%).
Apremilast Form I, a solvate, is a unique crystalline phase. […] FIG. 2 is a representative XRPD pattern for a representative sample of apremilast Form I made according to Example 2. Apremilast Form I is stable under stressed conditions, i.e. at under 45° C. and humid conditions (relative humidity>95%).

Data set [2] can be described thus: Drying under vacuum at 45° C. (solid form change). The data set is classed as physicochemical. The settings on record: dried under vacuum at 45° C. On the procedure: Apremilast Form J, a solvate, is a unique crystalline phase. […] FIG. 3 is a representative XRPD pattern for a representative sample of apremilast Form J made according to Example 3.
(§1) Apremilast Form M, a solvate, is a unique crystalline phase. FIG. 5 is a representative XRPD pattern for a representative sample of apremilast Form M made according to Example 5.
[…] The resulting solids are analyzed by XRPD and identified as apremilast Form K.

Data set [3] deals with human rheumatoid synovial cells. The following applies: cited from earlier work.
The subject of the next data set is phosphodiesterase (PDE4). The following applies: cited from earlier work.
Data set [4] is described as follows: Moisture uptake on exposure to air (DSC/TGA). It counts as physicochemical. The following applies: DSC thermogram and TGA plot show water in sample. On the procedure:
DSC data were collected using a TA Instruments Q10 DSC. Approximately, samples (2-8 mg) were placed in unsealed but covered hermetic alodined aluminum sample pans and scanned from 30 to 300° C. at a rate of 10° C./min under a nitrogen purge of 50 mL/min.
TGA data were collected using a TA Instruments TGA Q500. Approximately, samples (5-10 mg) were placed in an open, pre-tared aluminum sample pan and scanned from 25 to 300° C. at a rate of 10° C./min using a nitrogen purge at 60 mL/min.
(§2) Apremilast Form K, an anhydrous form, is a unique crystalline phase. […] FIG. 4 is a representative XRPD pattern for a representative sample of apremilast Form K made according to Example 4.
(In DSC, transitions show as peaks or steps in heat flow.)

A short description of data set [5]: Exposure to humidity (XRPD). The data set is classed as physicochemical. The following applies: exposed to high humidity. As for the experimental part: (§3) XRPD patterns were obtained using a Bruker D8 Advance equipped with a Cu Kα radiation source (λ=1.54° A), a 9-position sample holder and a LYNXEYE super speed detector. Samples were placed on zero-background, silicon plate holders for analysis. One skilled in the art would recognize that the ° 2θ values and the relative intensity values are generated by performing a peak search on the measured data and the d-spacing values are calculated by the instrument from the ° 2θ values using Bragg's equation. One skilled in the art would further recognize that the relative intensity for the measured peaks may vary as a result of sample preparation, orientation and instrument used, for example.
as §2, §1

A short description of data set [6]: Prolonged slurry (form conversion, XRPD). It counts as physicochemical. The following applies: XRPD FIG. 6. On the procedure:
as §3, §1

`CCOc1cc([C@@H](CS(C)(=O)=O)N2C(=O)c3cccc(NC(C)=O)c3C2=O)ccc1OC` [Apremilast Form H, (+)-2-[1-(3-ethoxy-4-methoxyphenyl)-2-methylsulfonylethyl]-4-acetylaminoisoindoline-1,3-dione]: in data set [1], the “stability under stressed conditions” value is reported as “stable”.
On to `CCOc1cc([C@@H](CS(C)(=O)=O)N2C(=O)c3cccc(NC(C)=O)c3C2=O)ccc1OC` [Apremilast Form J, (+)-2-[1-(3-ethoxy-4-methoxyphenyl)-2-methylsulfonylethyl]-4-acetylaminoisoindoline-1,3-dione], for which the “solid form behaviour when dried under vacuum” value in data set [2] was “loses formic acid when dried under vacuum at 45 °C and undergoes a form change, resulting in the anhydrous Form K”.
`CCOc1cc([C@@H](CS(C)(=O)=O)N2C(=O)c3cccc(NC(C)=O)c3C2=O)ccc1OC` [Apremilast, (+)-2-[1-(3-ethoxy-4-methoxyphenyl)-2-methylsulfonylethyl]-4-acetylaminoisoindoline-1,3-dione]: the “inhibition of spontaneous production of TNF-alpha” value in data set [3] is “inhibits spontaneous production of TNF-alpha”. Further, the PDE4 inhibition result with phosphodiesterase (PDE4) is reported as “inhibits PDE4”.
For `CCOc1cc([C@@H](CS(C)(=O)=O)N2C(=O)c3cccc(NC(C)=O)c3C2=O)ccc1OC` [Form K, (+)-2-[1-(3-ethoxy-4-methoxyphenyl)-2-methylsulfonylethyl]-4-acetylaminoisoindoline-1,3-dione], the “moisture uptake when exposed to air” value in data set [4] was “picks up moisture”. Moreover, the “form change when exposed to humidity” value in data set [5] is reported as “does not undergo a significant change”.
Turning to `CCOc1cc([C@@H](CS(C)(=O)=O)N2C(=O)c3cccc(NC(C)=O)c3C2=O)ccc1OC` [Form M, (+)-2-[1-(3-ethoxy-4-methoxyphenyl)-2-methylsulfonylethyl]-4-acetylaminoisoindoline-1,3-dione], the “form conversion upon prolonged slurry” value in data set [6] is “converts to apremilast”. In addition, the “solid form behaviour when dried under vacuum” value in data set [2] is “tends to lose some of the acetic acid when dried under vacuum at 45 °C and results in a semi-crystalline form”.
